The results in this text go back to PMC10223062, “Discovery of Novel Thiophene/Hydrazones: In Vitro and In Silico Studies against Pancreatic Cancer” (Pharmaceutics, 2023).

Structures are written as SMILES.

In one data set the test system is MIA PaCa-2 cell line. The data set is described as follows: 2D anticancer activity, MTT assay. Format: cell-based. Particulars: Homo sapiens, 72 h exposure, read-out: IC50 in 2D cultured MIA PaCa-2 cell line. The procedure:
(§1) For the preliminary assessment of anticancer activity in a 2D cell culture system, an MIA PaCa-2 human pancreas epithelial carcinoma (CRL-1420™) cell line (ATCC, Manassas, VA, USA) was cultured in Dulbecco’s Modified Eagle Medium with 10% fetal bovine serum (FBS, v/v) (Gibco, Billings, MT, USA) and supplemented with 1% antibiotics (10,000 μg/mL streptomycin and 10,000 U/mL penicillin) (Gibco, Billings, MT, USA) at 37 °C in a humidified 5% CO2 atmosphere. For the in vitro modeling of the tumor microenvironment, compounds were also tested in a 3D spheroid test system. For this purpose, the MIA PaCa-2 human pancreas epithelial carcinoma (CRL-1420™) cell line and human dermal fibroblast cell line HDF (PCS-201-012) cells were used.
For the assessment of anticancer activity of the compounds, the MIA PaCa-2 cells were plated in 48-well microplates at 1.5 × 10^5 cells/mL and incubated for 24 h at 37 °C in 5% CO2 in accordance with a previously reported method. Following the day, the cells were treated with compounds in various concentrations between 0.1–100 µM dissolved in dimethyl sulfoxide (DMSO) (Sigma Aldrich, St. Louis, MO, USA). Following the 72 h of incubation, culture mediums were discarded and 0.5 mg/mL 3-(4,5-Dimethylthiazol-2-yl)-2,5-Diphenyltetrazolium Bromide (MTT) (Sigma Aldrich, St. Louis, MO, USA) was added to each well for an additional 2 h at 37 °C. After 2 h incubation, the medium was discarded and 100 µL of isopropanol (Sigma Aldrich, St. Louis, MO, USA) was added to the wells to dissolve formazan crystals. The optical density was measured at 570 nm wavelength using a microplate reader (Thermo Fisher Scientific Multiskan, Finland). Doxorubicin hydrochloride (DOX) (European Pharmacopoeia standard, Sigma) was used as internal positive control, and 0.5% DMSO (v/v) was used as negative control. The percentage of cell viability was determined by using the following equation:(1) Viability %=(Absorbancecompound)/(Absorbancenegative control)×100%

The subject of another data set is HaCaT cell line. Kind of data set: Cell viability (cytotoxicity) in healthy cells, MTT assay. As to conditions: for IC50: Homo sapiens, HaCaT, MTT, 72 h, healthy keratinocytes, read-out: IC50 in 2D cultured HaCaT cell line; for Selectivity, cancer vs healthy cell line: MIA PaCa-2 vs healthy cell line (HaCaT). The format is cell-based, human. The procedure:
HaCaT human healthy keratinocyte cells (CRL-2404™) (ATCC, Manassas, VA, USA) were cultured in DMEM (10% FBS, v/v) (Gibco, Billings, MT, USA), respectively and supplemented with 1% antibiotics (10.000 μg/mL streptomycin and 10.000 units/mL penicillin) (Gibco, Billings, MT, USA) at 37 °C in a humidified atmosphere of 5% CO2. For the preliminary assessment of the cytotoxicity of selected potent compounds in healthy cells, HaCaT cells were seeded 2 × 10^5 cells/mL in 96-well plate and incubated for 24 h. The following day the 7a, 7d, and 7f compounds were applied similarly as in the MIA PaCa-2 cytotoxicity protocol between concentrations 0.62–100 µM for 72 h and then MTT was applied.
In general terms: Tetrazolium assays rely on reduction of a dye to a coloured formazan, in cell work by metabolically active cells.

Data set [1] has as its system MIA PaCa-2 tumor spheroids. The data set is described as follows: 3D spheroid formation/growth assay. Further details: Spheroid Diameter Day 0 / Spheroid Diameter Day 9: unit not given here. The format is cell-based, human. As to conditions: for Spheroid Diameter Day 0: Day 0 (baseline); for Reduction of spheroid diameter: 9 days. The procedure:
as §1
For 3D spheroid formation, the MIA PaCa-2 cells (PC cell line) and HDF cells were used according to the 3D Bioprinting method. To better simulate the tumor microenvironment, PC cells were mixed (1:1) with human fibroblasts. Briefly, the MIA PaCa-2 cells and human fibroblasts at 70–80% confluency were added to a 6-well plate and incubated with biocompatible NanoShuttle TM-PL (Bioprinting Kit, Greiner Bio-One, Germany) overnight at 37 °C in a humidified 5% CO2 atmosphere. After the nanoparticles were taken up by the cells, they were resuspended and seeded into an ultra-low attachment 96-well plate at a volume of 100 μL (2000 PC cells and 2000 human fibroblasts per well) volume. The plate was placed on a magnetic drive and incubated at 37 °C in a humidified 5% CO2 atmosphere until spheroids were formed. After two days of incubation, the spheroids were photographed using light microscopy (Carl Zeiss Primo Vert, Germany). Fresh medium containing 0.1, 1, 10, and 100 µM of tested compound was added to the wells. Photos were taken every 72 h, and the medium was replaced every 72 h. The effect of the tested compounds in 3D PC cell cultures was examined by measuring the size change of spheroids using ImageJ software (ImageJ 2.0 software, USA).

A further data set addresses T1, COX-2 (Homo sapiens, UniProt P35354).
T1 sequence (P35354 18-604): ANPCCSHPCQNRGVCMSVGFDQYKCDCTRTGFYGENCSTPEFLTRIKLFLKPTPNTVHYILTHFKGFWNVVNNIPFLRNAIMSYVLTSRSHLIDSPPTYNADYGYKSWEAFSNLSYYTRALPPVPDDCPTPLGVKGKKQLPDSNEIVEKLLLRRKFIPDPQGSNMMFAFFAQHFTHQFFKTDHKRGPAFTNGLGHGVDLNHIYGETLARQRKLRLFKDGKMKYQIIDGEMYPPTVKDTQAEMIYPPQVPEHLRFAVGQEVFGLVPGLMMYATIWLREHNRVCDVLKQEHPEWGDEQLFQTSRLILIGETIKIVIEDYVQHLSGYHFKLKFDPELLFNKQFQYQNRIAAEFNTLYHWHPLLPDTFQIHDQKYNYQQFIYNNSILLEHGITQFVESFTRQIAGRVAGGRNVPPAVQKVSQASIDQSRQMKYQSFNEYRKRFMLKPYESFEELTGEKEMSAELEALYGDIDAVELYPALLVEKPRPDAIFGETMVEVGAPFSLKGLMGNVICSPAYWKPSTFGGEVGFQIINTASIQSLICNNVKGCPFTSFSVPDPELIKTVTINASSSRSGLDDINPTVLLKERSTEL
The data set is described as follows: Fluorometric COX-2 inhibitor screening kit. Particulars: for COX-2 Percent of İnhibition: at 10 µM; for IC50: COX-2 IC50.

Experimental for COX-2: COX-1 and COX-2 inhibitory activities were tested using fluorometric COX-1 and COX-2 inhibitor screening kits (Abcam, United Kingdom), and the 5-LOX inhibitory activity was tested using a fluorometric 5-LOX inhibitor screening kit (MyBioSource, USA). These assays are based on the fluorometric detection of Prostaglandin G2 (a product generated by the COX enzyme) or on the fluorometric detection of the intermediate generated by the 5-LOX enzyme.
For the determination of COX-1 and COX-2 inhibitory activity, the tested compounds were dissolved in dimethyl sulfoxide (DMSO, 5 mM stock solution) and then diluted with the same solvent to obtain the test solutions. The test solutions were further diluted 5× with COX Assay Buffer (2 µL of test solution: 8 µL COX Assay Buffer). […] Solvent Control (SC) was prepared by adding 2 µL DMSO and 8 µL COX Assay Buffer, while Sample (S) and Enzyme Control (EC) were prepared by adding 10 µL of diluted test solution and COX Assay Buffer, respectively, into assigned wells.
EC, SC, IC, and all test solutions were analyzed in triplicate.

The IC50 is the concentration needed to halve the response being measured. Usually melting point stands for the temperature of the solid-liquid transition. `O=C(N/N=C/c1ccccc1O)c1cc(-c2ccccc2)c(-c2ccccc2)s1` [7a, N’-[(E)-(2-hydroxyphenyl)methylidene]-4,5-diphenylthiophene-2-carbohydrazide] showed a melting point of 238 °C. Further, the IC50 with MIA PaCa-2 cell line amounted to 7.51 ± 0.08 µM. Also, in the data set with HaCaT cell line, the IC50 was 880 ± 60 nM and the “Selectivity, cancer vs healthy cell line” value is on record as “cytotoxic effects on healthy cell line too”. Further, in data set [1] (0.1 µM group), the “Spheroid Diameter Day 0” value is listed as 1156.5 ± 14.2. For the same compound, the “Spheroid Diameter Day 9” value in data set [1] (0.1 µM) is 5050.5 ± 36.9. In data set [1] (1 µM group), the “Spheroid Diameter Day 0” value was found to be 1186.5 ± 91.9. For the same compound, the “Spheroid Diameter Day 9” value in data set [1] (1 µM) came to 1755.0 ± 58.9. Moreover, the “Spheroid Diameter Day 0” value in data set [1] (10 µM group) amounted to 1176.0 ± 31.1. Besides, the “Spheroid Diameter Day 9” value in data set [1] (10 µM) is recorded as 636.0 ± 12.7. Moreover, the “Reduction in spheroid size” value in data set [1] (10 µM, after 9 days of treatment) turned out to be 46%. For the same compound, the “Spheroid Diameter Day 0” value in data set [1] (100 µM group) amounted to 1183.0 ± 36.1. In data set [1] (100 µM), the “Reduction of spheroid diameter” value is on record as 65% and the “Spheroid Diameter Day 9” value is listed as 432.0 ± 17.4. Further, the “COX-2 Percent of İnhibition” value on COX-2 was 13.57 ± 0.38%.

Consider `O=C(N/N=C/c1ccc(O)cc1)c1cc(-c2ccccc2)c(-c2ccccc2)s1` [7c, N’-[(E)-(4-hydroxyphenyl)methylidene]-4,5-diphenylthiophene-2-carbohydrazide], for which the melting point was determined as 256 °C. The IC50 with MIA PaCa-2 cell line is 42.8 ± 3.59 µM. Moreover, in data set [1] (0.1 µM group), the “Spheroid Diameter Day 0” value came to 1118.0 ± 31.1. The “Spheroid Diameter Day 9” value in data set [1] (0.1 µM) worked out at 5415.0 ± 12.7. In data set [1] (1 µM group), the “Spheroid Diameter Day 0” value came out at 1168.0 ± 52.7. Also, the “Spheroid Diameter Day 9” value in data set [1] (1 µM) was determined as 6174.0 ± 106.1. Further, the “Spheroid Diameter Day 0” value in data set [1] (10 µM group) came out at 989.5 ± 54.1. Also, the “Spheroid Diameter Day 9” value in data set [1] (10 µM) was found to be 3729.5 ± 12.8. The “Spheroid Diameter Day 0” value in data set [1] (100 µM group) worked out at 940.5 ± 33.9. The “Spheroid Diameter Day 9” value in data set [1] (100 µM) amounted to 2207.0 ± 47.1. Further, on COX-2, the IC50 came out at 10.1 ± 0.25 µM and the “COX-2 Percent of İnhibition” value is given as 51.97 ± 2.51%.

The compound `COc1ccccc1/C=N/NC(=O)c1cc(-c2ccccc2)c(-c2ccccc2)s1` [7d, N’-[(E)-(2-methoxyphenyl)methylidene]-4,5-diphenylthiophene-2-carbohydrazide] displayed a melting point of 263 °C. Moreover, the IC50 in the data set on MIA PaCa-2 cell line came out at 9.09 ± 1.04 µM. In the data set with HaCaT cell line, the IC50 is over 100000 nM and the “Selectivity, cancer vs healthy cell line” value was “showed selectivity”. The “Spheroid Diameter Day 0” value in data set [1] (0.1 µM group) is recorded as 1127.5 ± 36.1. Also, in data set [1] (0.1 µM), the “Spheroid Diameter Day 9” value was found to be 4911.0 ± 117.4. In data set [1] (1 µM group), the “Spheroid Diameter Day 0” value is 1211.0 ± 17.9. In addition, in data set [1] (1 µM), the “Spheroid Diameter Day 9” value is on record as 6312.5 ± 24.8. In addition, the “Spheroid Diameter Day 0” value in data set [1] (10 µM group) was found to be 1297.5 ± 55.1. Also, in data set [1] (10 µM), the “Spheroid Diameter Day 9” value came to 1708.0 ± 87.1. For the same compound, the “Spheroid Diameter Day 0” value in data set [1] (100 µM group) was 974.0 ± 32.2. Moreover, in data set [1] (100 µM), the “Reduction of spheroid diameter” value was 55% and the “Spheroid Diameter Day 9” value is given as 445.7 ± 64.1. Further, at COX-2, the “COX-2 Percent of İnhibition” value is 16.74 ± 3.36%.

On to `COc1cc(/C=N/NC(=O)c2cc(-c3ccccc3)c(-c3ccccc3)s2)ccc1O` [7e, N’-[(E)-(3-methoxy-4-hydroxyphenyl)methylidene]-4,5-diphenylthiophene-2-carbohydrazide], for which the melting point was determined as 234 °C. For the same compound, the concentration for half-maximal inhibition (IC50) with MIA PaCa-2 cell line is over 100 µM. In data set [1] (0.1 µM group), the “Spheroid Diameter Day 0” value is on record as 1181.5 ± 33.2. For the same compound, the “Spheroid Diameter Day 9” value in data set [1] (0.1 µM) is 5607.5 ± 44.55. Further, in data set [1] (1 µM group), the “Spheroid Diameter Day 0” value is listed as 1153.0 ± 73.5. Also, the “Spheroid Diameter Day 9” value in data set [1] (1 µM) was found to be 6396.0 ± 16.1. Besides, the “Spheroid state at the end of the 9 days” value in data set [1] (10–100 µM) was “disintegrated”. At COX-2, the midpoint of inhibition, the IC50, lay at 13.9 ± 0.76 µM and the “COX-2 Percent of İnhibition” value is 49.41±1.12%.

`COc1ccc(/C=N/NC(=O)c2cc(-c3ccccc3)c(-c3ccccc3)s2)cc1O` [7f, N’-[(E)-(3-hydroxy-4-methoxyphenyl)methylidene]-4,5-diphenylthiophene-2-carbohydrazide] displayed a melting point of 249 °C. Further, the IC50 in the data set with MIA PaCa-2 cell line was found to be 4.86 ± 0.19 µM. Moreover, in the data set with HaCaT cell line, the IC50 is 670 ± 130 nM and the “Selectivity, cancer vs healthy cell line” value was “cytotoxic effects on healthy cell line too”. Moreover, the “Spheroid Diameter Day 0” value in data set [1] (0.1 µM group) is given as 1110.0 ± 113.1. Besides, the “Spheroid Diameter Day 9” value in data set [1] (0.1 µM) turned out to be 5823.0 ± 39.8. Besides, the “Spheroid Diameter Day 0” value in data set [1] (1 µM group) was 1108.0 ± 17.6. In data set [1] (1 µM), the “Spheroid Diameter Day 9” value came to 4336.0 ± 48.1. Besides, the “Spheroid Diameter Day 0” value in data set [1] (10 µM group) was found to be 1215.0 ± 12.7. Further, the “Spheroid Diameter Day 9” value in data set [1] (10 µM) is reported as 2806.0 ± 31.5. The “Spheroid state at the end of the 9 days” value in data set [1] (100 µM) is given as “disintegrated”. Also, at COX-2, the concentration for half-maximal inhibition (IC50) worked out at 39 ± 3.41 µM and the “COX-2 Percent of İnhibition” value was found to be 38.41 ± 0.85%.
